Measurements published in patent publication US20160081312A1, “MODEL OF ALZHEIMER'S DISEASE” (priority 2013, published 2016).

B1: IL1-Ra: Rat recombinant IL-1 receptor antagonist, R&D systems (protein, UniProt P25086 27-178, looked up)
Interleukin-1 receptor …: HPAGKRPCKMQAFRIWDTNQKTFYLRNNQLIAGYLQGPNTKLEEKIDMVPIDFRNVFLGIHGGKLCLSCVKSGDDTKLQLEEVNITDLNKNKEEDKRFTFIRSETGPTTSFESLACPGWFLCTTLEADHPVSLTNTPKEPCTVTKFYFQEDQ

Key:
[1] = system: Aβ; assay: Aβ level in cultured rat neurons and astrocytes; type: cell-based, wistar rat; details: memantine 5 μM, donepezil 10 μM, docosahexaenoic acid 10 μM; for Fold reduction in Aβ: metal mixture-induced, rat astrocytes and neurons, α-tocopherol 10 μM; for effect on levels of Aβ in the cellular model of AD: Vitamin E 10 μM
Experimental: (§1) The pregnant wistar rats were sacrificed by cervical dislocation and the embryos were removed on the 16th day of gestation. The embryonic brain tissues were mechanically dissociated into individual cells in dissection media containing Glucose (1M), sucrose (1 M), HEPES Buffer (1M) and Hank's salt (1×). The resulting cells were centrifuged (1,500 rpm, 5 min), resuspended in NEUROBASAL medium containing B-27 supplement (Invitrogen, Carlsbad, Calif.), L-glutamine (0.5 mM), penicillin (100 U/ml) and streptomycin (100 μg/ml) and plated into 60 mm dishes. The culture media was changed every 2 days.
(§2) The astrocytes from rat brain were isolated and cultured. Briefly, prefrontal cortices of 1-day-old wistar rats were dissected out and digested with trypsin for 10 min at 37° C. A single cell suspension was obtained by triturating, and the cells were seeded onto poly-L-lysine (100 μg/ml)-coated plates. The cultures were maintained in DMEM/F12 with 10% heat-inactivated fetal bovine serum, 100 U/ml penicillin, and […] streptomycin. The confluent cells were rinsed twice with serum-free media and then detached with 0.25% trypsin with ethylenediaminetetraacetic acid and sub-cultured.
(§3) The astrocytes and neurons were grown to 80% confluence, pre-incubated in reduced serum (0.5% fetal bovine serum [FBS]) medium for 2 h, and then treated with a mixture of As, Cd, and Pb (Group 1 and 2, Table 2 for neurons, and Table 3 for astrocytes) in the form of NaAsO2, CdCl2 and Pb(C2H3O2)2, respectively in Milli Q water for 16 h, and incubated in a humidified tissue culture incubator at 37° C. with 5% CO2-95% air. The NaAsO2, and CdCl2 readily dissolved in water, while Pb(C2H3O2)2 was dissolved by adding 0.043% acetic acid in water. To identify the synergistic nature, the astrocytes and neurons were treated with metal mixture as well as individual metals (Group 1-5 of Table 2 for neurons, and Table 3 for astrocytes).
(§4) The astrocytes and neurons were treated, washed with PBS and suspended in 100 μl of CelLytic™ MT Cell Lysis Reagent protease inhibitor cocktail (a mixture of 4-(2-aminoethyl)benzenesulfonyl fluoride, pepstatinA, E-64, bestatin, leupeptin, and aprotinin)] and kept on ice for 20 min. The cells were homogenized using a Teflon homogenizer and centrifuged at 15,000 rpm for 30 min at 4° C., and the supernatant was collected. SDS-PAGE and western blotting was done with APP (1:1000), Aβ-40 (1:1000), Aβ-42 (1:1000), IL-1α(1:1000), IL-1β (1:1000) and IL-1R1. […] The samples were detected by chemiluminescence with super signal west femto max substrate. Relative expression of each protein was determined by densitometric quantification of blots using VersaDoc Gel Imaging System (BioRad, Hercules, CF). […]

[2] = system: APP; assay: APP level in cultured rat neurons and astrocytes; type: cell-based, wistar rat; details: memantine 5 μM, donepezil 10 μM, docosahexaenoic acid 10 μM; for Fold reduction in APP: metal mixture-induced, rat astrocytes and neurons, α-tocopherol 10 μM; for effect on levels of APP in the cellular model of AD: Vitamin E 10 μM
Experimental: as §1, §2, §3, §4

[3] = system: Aβ-42; assay: Aβ-42 level in rat brain cortex and hippocampus, western blotting; type: in vivo, wistar rat
Experimental: (§5) All animal-handling procedures were carried out in accordance with the current regulations of the Indian Institute of Toxicology Research Animal Ethics Committee, and with its prior approval for using the animals. The pregnant female wistar rats were housed in a 12-h […] cycle environment with ad libitum diet and water. The rats were divided into six groups (n=30 per group), gavage-treated with the metal mixture (Table 1). The metal mixture treatment was at two concentrations (1× and 10×; Groups 1-3, Table 1) for dose-dependent study. To identify the synergistic nature, the animals were treated in mixture as well as individually with the metals (Group 1-6 of Table 1). The heavy metals were As, Cd and Pb, fed in the form of NaAsO2, CdCl2 and Pb(C2H3O2)2, respectively, in Milli Q water. The NaAsO2, and CdCl2 readily dissolved in water, while Pb(C2H3O2)2 was dissolved by adding 0.043% acetic acid in water. The dams (pregnant rats and lactating mother rats) were daily treated with the metals in water from gestation day 5 (G-05) until the pups weaned (postnatal day-21, P-21). From P-22, the postnatal rats were directly treated with the metals until P-90. The tissues were collected at P-24, P-60 or P-90. The male rats were selected for the study, and rats from separate litters served as independent subjects.
(§6) Tissues of the cerebral cortex and hippocampus from five to seven postnatal wistar rats were harvested, snap-frozen in liquid nitrogen, and stored at −80° C. until further investigation. SDS-PAGE and western blotting was performed with APP (1:1000), Aβ-40 (1:1000), Aβ-42 (1:1000), APP-CTF-β (1:1000), presenilin (1:1000), IL-1α (1:1000), IL-1β (1:1000) and IL-1R1 (1:1000), RAGE (1:1000) and pGP (1:1000). […] The samples were detected by chemiluminescence with super signal west femto max substrate. Relative expression of each protein was determined by densitometric quantification of blots using VersaDoc Gel Imaging System (BioRad, Hercules, CF). […]

[4] = system: Aβ-40; assay: Aβ1-40 level in rat cortex and hippocampus, ELISA; type: in vivo, wistar rat
Experimental: as §5

[5] = system: APP; assay: APP level in rat brain cortex and hippocampus, western blotting; type: in vivo, wistar rat
Experimental: as §5, §6

[6] = memantine 10 mg/kg body weight, donepezil 1.5 mg/kg body weight
[7] = metal mixture-induced, rat brain, two week treatment, memantine 10 mg/kg, donepezil 1.5 mg/kg with 10X-MM in P-90 rats
[8] = hippocampal insertion, once at P-90 in 10X-MM-treated rats, dissected after 10 days

| Molecule | Fold reduction in Aβ [1] [fold] | Fold reduction in APP [2] [fold] | effect on levels of Aβ in the cellular model of AD [1] | effect on levels of APP in the cellular model of AD [2] | further results |
| --- | --- | --- | --- | --- | --- |
| CC/C=C\C/C=C\C/C=C\C/C=C\C/C=C\C/C=C\CCC(=O)O [Docosahexaenoic acid] | 2.3 ± 0.0853 | 1.25 ± 0.0265 |  |  |  |
| CC12CC3CC(C)(C1)CC(N)(C3)C2 [Memantine] | 1.4 ± 0.052 | 1.3 ± 0.0392 | suppressed | suppressed | effect on Aβ1-42 in the non-transgenic wistar rat model of AD [3, 6]: suppress; fold reduction in Aβ-42 [3, 7]: 2.42 ± 0.0143 fold; effect on Aβ1-40 in the non-transgenic wistar rat model of AD [4, 6]: suppress; fold reduction in Aβ-40 [4, 7]: 2.54 ± 0.0099 fold; effect on APP in the non-transgenic wistar rat model of AD [5, 6]: suppress; Fold reduction in APP [5, 7]: 1.69 ± 0.0510 fold |
| Cc1c(C)c2c(c(C)c1O)CC[C@@](C)(CCC[C@H](C)CCC[C@H](C)CCCC(C)C)O2 [α-tocopherol] |  |  | suppressed | suppressed |  |
| B1 |  |  |  |  | effect on Aβ1-42 in As, Cd and Pb-mixture treated rat brain [3, 8]: suppressed; effect on APP in As, Cd and Pb-mixture treated rat brain [5, 8]: suppressed |
